Reference: patent US20070122376A1, “Pheromones and method of preventing infestation of Contarinia nasturtii” (priority 2004, published 2007)

Tests used:
male antenna = assay: GC-EAD electrophysiological recording of male antennal response; set-up: species or system Contarinia nasturtii; settings: natural peaks of ovipositor extract, identified by mass spectra and coelution with synthetics
Procedure: The pots with infested soil were put in glass cages (28×28×33 cm) and kept at L/D 18/6, 25° C., and RH 70% for the adults to emerge. After emergence, males and females were transferred to separate cages. Females were kept under the conditions mentioned and males were kept at L/D 18/6, 15° C., and RH 75%. […] The ovipositors were collected in a vial kept in liquid nitrogen and then extracted for 1-2 min redistilled hexane (LabScan). Extracts were kept in sealed glass capillaries at −18° C. until use.
Male antennal response to ovipositor extracts was analyzed by gas chromatography 25 with electroantennographic detection (GC-EAD). The GC used was a Hewlett Packard 6890 GC with flame ionization detection and an Innowax column (30m×0.25 mm ID, Hewlett Packard, USA). The column temperature was programmed from 80° C. (2 min hold) to 230° C. at 10° C./min. The antennal recordings were made using a Plexiglass holder with two wells connected to an amplifier by gold wire electrodes (JoAC, Lund, Sweden; Zhang et al., 1997; Hillbur, 2001). Male insects were mounted in the holder as described by Hillbur et al. (2000). […] Antennal signals were amplified (JoAC) before they were recorded and analyzed with ElectroAntennoGraphy software (Syntech, Hilversum, The Netherlands).

male C. nasturtii = assay: Wind tunnel assay of male response (landing on odour source); format: in vivo, Contarinia nasturtii; settings: for landings on the odor source, response to single component: each component tested individually at the concentrations indicated (FIG. 4), N>=20; for males flying towards the odour source: single components tested individually
Procedure: Calling females were collected from the laboratory culture and submersed in batches in hexane (p.a. grade) for 15 min at room temperature. The supernatant was then decanted and concentrated to the highest concentration tested by blowing off the hexane with N2.
Wind tunnel experiments were performed in the 2nd to 4th hour of the photophase at 22° C. and 73% r.h. in a wind tunnel described in detail by Rauscher et al. (1984). Compounds were diluted in hexane (p.a. grade). For the bioassays, 10 p 1 of the stimulus to be tested was applied onto a piece of fitter paper (Chromatographiepapier “Schleicher & Schuell AG” Auer-Bittmann Soulié AG, Zurich, Switzerland, 69.2 gr/m2, 1 cm^2)which was then placed in the air stream at least 20 sec before the first male was tested. For each stimulus, a series of five males were tested individually, requiring a total of 5-10 min for each series. For each series, a new piece of filter paper was loaded with the respective stimulus.
Males were kept individually in glass tubes (10 cm, 15 mm i.d.) closed at one end with a piece of screen (mesh size 1×1 mm) until they were tested. With these tubes they were transferred into the wind tunnel, where the tube was placed on a pole in horizontal position with the opening upwind, at a distance of 130 cm downwind from the odor source. Time recording was then started and the following steps recorded. Activation by wing-fanning, take off, directed flight towards the odor source, flights closer than 30 cm from the source (“close in”), landing on the source or elsewhere. The test was stopped when no activity or take off was registered during […] or when the insect landed elsewhere.
Of the recorded parameters only the number of successful landings on the source were analyzed

CC(=O)O[C@@H](C)CCCCCCC[C@H](C)OC(C)=O [(2S,10S)-diacetoxyundecane, (2S,10S)-Diacetoxyundecane]
male antennal response (GC-EAD) (male antenna): EAD-active | landings on the odor source, response to single component (male C. nasturtii): 0 | males flying towards the odour source (male C. nasturtii): no males flew towards the odour source

CC[C@@H](CCCCCC[C@H](C)OC(C)=O)OC(C)=O [(2S,9S)-diacetoxyundecane, (2S,9S)-Diacetoxyundecane]
male antennal response (GC-EAD) (male antenna): EAD-active | landings on the odor source, response to single component (male C. nasturtii): 0 | males flying towards the odour source (male C. nasturtii): no males flew towards the odour source

CCCCCCCCC[C@H](C)OC(C)=O [(2S)-acetoxyundecane, (2S)-Acetoxyundecane]
most attractive concentration of (2S)-acetoxyundecane in blend (male C. nasturtii; blends with 1.5 ng/dispenser (2S,9S)- and 3.0 ng/dispenser (2S,10S)-diacetoxyundecane): 0.03 ng/dispenser | effect of higher concentrations of (2S)-acetoxyundecane on proportion of male landing (male C. nasturtii; concentrations higher than 0.03 ng/dispenser in blend with 1.5 ng 2S,9S and 3.0 ng 2S,10S): inhibitory | landings on the odor source, response to single component (male C. nasturtii): 0 | males flying towards the odour source (male C. nasturtii): no males flew towards the odour source
